Data from patent publication US9890171B2, “Aldosterone synthase inhibitors” (Boehringer Ingelheim International GmbH, priority 2014, dated 2018).

Target: aldosterone synthase (CYP11B2) (Macaca fascicularis, UniProt A0A2K5UPL9)
Experiment: aldosterone synthase inhibition assay
Assay type: biochemical, cynomolgus monkey
Details: cynomolgus adrenal gland mitochondria, 2 μM corticosterone, aldosterone quantified by mass spectrometry
Method in brief: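 Cynomolgus adrenal mitochondria ([…]) used as CYP11B2 source with 2 μM corticosterone in 100 mM potassium phosphate pH 7.4, 1% DMSO; reaction started with 1 mM NADPH, run 60-90 min at 37° C. Aldosterone measured by mass spectrometry; IC50 from 4-parameter logistic fit, no-NADPH blank as 0%.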

Chain of aldosterone synthase (CYP11B2) (A0A2K5UPL9 1-503): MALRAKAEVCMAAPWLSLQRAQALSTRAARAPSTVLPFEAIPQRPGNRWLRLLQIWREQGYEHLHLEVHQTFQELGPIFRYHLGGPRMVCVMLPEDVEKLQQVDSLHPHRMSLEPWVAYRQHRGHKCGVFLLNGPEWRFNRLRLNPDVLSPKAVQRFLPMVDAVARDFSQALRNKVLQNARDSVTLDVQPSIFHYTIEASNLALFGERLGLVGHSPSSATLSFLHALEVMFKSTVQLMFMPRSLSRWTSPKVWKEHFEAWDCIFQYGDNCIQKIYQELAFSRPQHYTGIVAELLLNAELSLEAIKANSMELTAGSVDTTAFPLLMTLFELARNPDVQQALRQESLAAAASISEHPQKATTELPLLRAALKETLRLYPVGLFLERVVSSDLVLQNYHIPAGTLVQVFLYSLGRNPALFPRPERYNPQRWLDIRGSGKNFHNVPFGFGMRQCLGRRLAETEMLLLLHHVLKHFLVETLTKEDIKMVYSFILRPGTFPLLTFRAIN

SMILES | IC50
OC1COCc2c(-c3ccc4c(c3)C(F)(F)CCO4)cncc21 (single isomer, unassigned) [Compound 141, 8-(4,4-Difluoro-chroman-6-yl)-3,4-dihydro-1H-pyrano[4,3-c]pyridin-4-ol] | 339 nM
OC1COCc2c(-c3ccc4c(c3)C(F)(F)CCO4)cncc21 (single isomer, unassigned) [Compound 142, 8-(4,4-Difluoro-chroman-6-yl)-3,4-dihydro-1H-pyrano[4,3-c]pyridin-4-ol] | 118 nM
CCC(=O)NC1COCc2c(-c3ccc4c(c3)C(F)(F)CCO4)cncc21 (single isomer, unassigned) [Compound 143, N-[8-(4,4-Difluoro-chroman-6-yl)-3,4-dihydro-1H-pyrano[4,3-c]pyridin-4-yl]-propionamide] | 27.9 nM
CCS(=O)(=O)NC1COCc2c(-c3ccc4c(c3)C(F)(F)CCO4)cncc21 (single isomer, unassigned) [Compound 144, Ethanesulfonic acid [8-(4,4-difluoro-chroman-6-yl)-3,4-dihydro-1H-pyrano[4,3-c]pyridin-4-yl]-amide] | 470 nM
O=C1NCCOc2cc(-c3cncc4c3COCC4O)ccc21 (single isomer, unassigned) [Compound 145, 8-(4-Hydroxy-3,4-dihydro-1H-pyrano[4,3-c]pyridin-8-yl)-3,4-dihydro-2H-benzo[f][1,4]oxazepin-5-one] | 738 nM
O=C1NCCOc2cc(-c3cncc4c3COCC4O)ccc21 (single isomer, unassigned) [Compound 146, 8-(4-Hydroxy-3,4-dihydro-1H-pyrano[4,3-c]pyridin-8-yl)-3,4-dihydro-2H-benzo[f][1,4]oxazepin-5-one] | 9730 nM
CCC(=O)NC1COCc2c(-c3ccc4c(c3)OCCNC4=O)cncc21 (single isomer, unassigned) [Compound 147, N-[8-(5-Oxo-2,3,4,5-tetrahydro-benzo[f][1,4]oxazepin-8-yl)-3,4-dihydro-1H-pyrano[4,3-c]pyridin-4-yl]-propionamide] | 1690 nM
OC1COCc2c(-c3ccc4c(c3)COCCC4(F)F)cncc21 (single isomer, unassigned) [Compound 148, 8-(5,5-Difluoro-1,3,4,5-tetrahydro-benzo[c]oxepin-8-yl)-3,4-dihydro-1H-pyrano[4,3-c]pyridin-4-ol] | 83.7 nM
Cn1ncc2c(F)cc(-c3cncc4c3COCC4N)cc21 (single isomer, unassigned) [Compound 149, 8-(4-Fluoro-1-methyl-1H-indazol-6-yl)-3,4-dihydro-1H-pyrano[4,3-c]pyridin-4-ylamine] | 17.3 nM
CCC(=O)NC1COCc2c(-c3cc(F)c4cnn(C)c4c3)cncc21 (single isomer, unassigned) [Compound 150, N-[8-(4-Fluoro-1-methyl-1H-indazol-6-yl)-3,4-dihydro-1H-pyrano[4,3-c]pyridin-4-yl]-propionamide] | 17.4 nM
CC(=O)NC1COCc2c(-c3ccc4c(c3)CCC4=O)cncc21 (single isomer, unassigned) [Compound 151, N-[8-(1-Oxo-indan-5-yl)-3,4-dihydro-1H-pyrano[4,3-c]pyridin-4-yl]-acetamide] | 4880 nM
CC(=O)NC1COCc2c(-c3ccc4c(c3)CCC4=O)cncc21 (single isomer, unassigned) [Compound 152, N-[8-(1-Oxo-indan-5-yl)-3,4-dihydro-1H-pyrano[4,3-c]pyridin-4-yl]-acetamide] | 50.2 nM
CC(C)(O)CC(=O)NC1COCc2c(-c3ccc4c(c3)CCC4=O)cncc21 (single isomer, unassigned) [Compound 153, 3-Hydroxy-3-methyl-N-[8-(1-oxo-indan-5-yl)-3,4-dihydro-1H-pyrano[4,3-c]pyridin-4-yl]-butyramide] | 70 nM
CC(=O)NC1COCc2c(-c3ccc4oc(=O)ccc4c3)cncc21 (single isomer, unassigned) [Compound 154, N-[8-(2-Oxo-2H-chromen-6-yl)-3,4-dihydro-1H-pyrano[4,3-c]pyridin-4-yl]-acetamide] | 26.3 nM
CCC(=O)NC1COCc2c(-c3ccc4cnn(C)c4c3)cncc21 (single isomer, unassigned) [Compound 155, N-[8-(1-Methyl-1H-indazol-6-yl)-3,4-dihydro-1H-pyrano[4,3-c]pyridin-4-yl]-propionamide] | 3800 nM
CCC(=O)NC1COCc2c(-c3ccc4onc(C)c4c3)cncc21 (single isomer, unassigned) [Compound 156, N-[8-(3-Methyl-benzo[d]isoxazol-5-yl)-3,4-dihydro-1H-pyrano[4,3-c]pyridin-4-yl]-propionamide] | 312 nM
CCS(=O)(=O)NC1COCc2c(-c3ccc4c(c3)CCC4=O)cncc21 (single isomer, unassigned) [Compound 157, Ethanesulfonic acid [8-(1-oxo-indan-5-yl)-3,4-dihydro-1H-pyrano[4,3-c]pyridin-4-yl]-amide] | 46 nM
CCS(=O)(=O)NC1COCc2c(-c3ccc4oc(=O)ccc4c3)cncc21 (single isomer, unassigned) [Compound 158, Ethanesulfonic acid [8-(2-oxo-2H-chromen-6-yl)-3,4-dihydro-1H-pyrano[4,3-c]pyridin-4-yl]-amide] | 13 nM

SMILES | IC50
CCS(=O)(=O)NC1COCc2c(-c3ccc4onc(C)c4c3)cncc21 (single isomer, unassigned) [Compound 159, Ethanesulfonic acid [8-(3-methyl-benzo[d]isoxazol-5-yl)-3,4-dihydro-1H-pyrano[4,3-c]pyridin-4-yl]-amide] | 797 nM
NC(=O)N1CCCc2cc(-c3cncc4c3C(O)COC4)cnc21 (single isomer, unassigned) [Compound 161, 6-(4-Hydroxy-3,4-dihydro-1H-pyrano[3,4-c]pyridin-5-yl)-3,4-dihydro-2H-[1,8]naphthyridine-1-carboxylic acid amide] | 35.3 nM
NC(=O)N1CCCc2cc(-c3cncc4c3C(O)COC4)cnc21 (single isomer, unassigned) [Compound 162, 6-(4-Hydroxy-3,4-dihydro-1H-pyrano[3,4-c]pyridin-5-yl)-3,4-dihydro-2H-[1,8]naphthyridine-1-carboxylic acid amide] | 71.4 nM
NC(=O)N1CCCc2cc(-c3cncc4c3COCC4O)cnc21 (single isomer, unassigned) [Compound 163, 6-(4-Hydroxy-3,4-dihydro-1H-pyrano[4,3-c]pyridin-8-yl)-3,4-dihydro-2H-[1,8]naphthyridine-1-carboxylic acid amide] | 44.3 nM
NC(=O)N1CCCc2cc(-c3cncc4c3COCC4O)cnc21 (single isomer, unassigned) [Compound 164, 6-(4-Hydroxy-3,4-dihydro-1H-pyrano[4,3-c]pyridin-8-yl)-3,4-dihydro-2H-[1,8]naphthyridine-1-carboxylic acid amide] | 41.5 nM
Cn1ncc2ccc(-c3cncc4c3C(O)COC4)cc21 (single isomer, unassigned) [Compound 165, 5-(1-Methyl-1H-indazol-6-yl)-3,4-dihydro-1H-pyrano[3,4-c]pyridin-4-ol] | 224 nM
Cn1ncc2ccc(-c3cncc4c3C(O)COC4)cc21 (single isomer, unassigned) [Compound 166, 5-(1-Methyl-1H-indazol-6-yl)-3,4-dihydro-1H-pyrano[3,4-c]pyridin-4-ol] | 36.5 nM
OC1COCc2cncc(-c3ccc4cnccc4c3)c21 (single isomer, unassigned) [Compound 167, 5-Isoquinolin-6-yl-3,4-dihydro-1H-pyrano[3,4-c]pyridin-4-ol] | 156 nM
OC1COCc2cncc(-c3ccc4cnccc4c3)c21 (single isomer, unassigned) [Compound 168, 5-Isoquinolin-6-yl-3,4-dihydro-1H-pyrano[3,4-c]pyridin-4-ol] | 40.5 nM
Cn1ncc2ccc(-c3cncc4c3COCC4(C)O)cc21 (single isomer, unassigned) [Compound 169, 4-Methyl-8-(1-methyl-1H-indazol-6-yl)-3,4-dihydro-1H-pyrano[4,3-c]pyridin-4-ol] | 13.9 nM
Cn1ncc2ccc(-c3cncc4c3COCC4(C)O)cc21 (single isomer, unassigned) [Compound 170, 4-Methyl-8-(1-methyl-1H-indazol-6-yl)-3,4-dihydro-1H-pyrano[4,3-c]pyridin-4-ol] | 7.8 nM
Cn1nc(F)c2ccc(-c3cncc4c3COCC4(C)O)cc21 (single isomer, unassigned) [Compound 171, 8-(3-Fluoro-1-methyl-1H-indazol-6-yl)-4-methyl-3,4-dihydro-1H-pyrano[4,3-c]pyridin-4-ol] | 19.1 nM
Cn1nc(F)c2ccc(-c3cncc4c3COCC4(C)O)cc21 (single isomer, unassigned) [Compound 172, 8-(3-Fluoro-1-methyl-1H-indazol-6-yl)-4-methyl-3,4-dihydro-1H-pyrano[4,3-c]pyridin-4-ol] | 10.2 nM
Cn1ncc2c(C#N)cc(-c3cncc4c3COCC4(C)O)cc21 (single isomer, unassigned) [Compound 173, 6-(4-Hydroxy-4-methyl-3,4-dihydro-1H-pyrano[4,3-c]pyridin-8-yl)-1-methyl-1H-indazole-4-carbonitrile] | 340 nM
Cn1ncc2c(C#N)cc(-c3cncc4c3COCC4(C)O)cc21 (single isomer, unassigned) [Compound 174, 6-(4-Hydroxy-4-methyl-3,4-dihydro-1H-pyrano[4,3-c]pyridin-8-yl)-1-methyl-1H-indazole-4-carbonitrile] | 4400 nM
Cn1ncc2c(F)cc(-c3cncc4c3COCC4(C)O)cc21 (single isomer, unassigned) [Compound 175, 8-(4-Fluoro-1-methyl-1H-indazol-6-yl)-4-methyl-3,4-dihydro-1H-pyrano[4,3-c]pyridin-4-ol] | 21.6 nM
Cn1ncc2c(F)cc(-c3cncc4c3COCC4(C)O)cc21 (single isomer, unassigned) [Compound 176, 8-(4-Fluoro-1-methyl-1H-indazol-6-yl)-4-methyl-3,4-dihydro-1H-pyrano[4,3-c]pyridin-4-ol] | 13.4 nM
